Patent US20220016060A1, “USE OF SODIUM 2-(3-PENTYLPHENYL)ACETATE IN THE TREATMENT OF ALSTRÖM SYNDROME” (LIMINAL BIOSCIENCES LIMITED, priority 2018, published 2022)

Tests used:
Format in all cases: in vivo, human
ALMS patients [1] = experiment: Cardiac MRI of myocardial fibrosis (SAX T1); details: for Change from Baseline Basal SAX T1, Mean / Change from Baseline Basal SAX T1, Median / Change from Baseline Mid SAX T1, Mean / Change from Baseline Mid SAX T1, Median: 800 mg daily oral
Description: (§1) The study was a Phase 2, single-centre, single-arm, open-label study of sodium 2-(3-pentylphenyl)acetate administered at a total daily oral dose of 800 mg for up to 72 weeks in subjects with ALMS was undertaken. The initial duration of the study was 24 weeks, and subjects were offered to enrol into an extension phase of 36 or 48 weeks. The schedule of study procedures for the enrolment, intervention, and assessments for participants is outlined in FIG. 1. Sodium 2-(3-pentylphenyl)acetate was formulated in soft gelatine capsules containing 200 mg of Sodium 2-(3-pentylphenyl)acetate (amorphous powder) per capsule, polyethylene glycol 400, National Formulary (NF), hydrochloric acid (for pH adjustment), and water. The effect of sodium 2-(3-pentylphenyl)acetate on heart histology in ALMS patients was also assessed by measuring short-axis (plane) longitudinal relaxation time (SAX T1). A decrease in relaxation time reflects an improvement in heart histology, such as a decrease of myocardial fibrosis, which reduces the risk of cardiac failure.

ALMS patients [2] = experiment: C-peptide; details: for Change from Baseline C-Peptide, Mean / Change from Baseline C-Peptide, Median: 800 mg daily oral
Description: as §1, with “water.” for “water. The effect of sodium 2-(3-pentylphenyl)acetate on heart histology in ALMS patients was also assessed by measuring short-axis (plane) longitudinal relaxation time (SAX T1). A decrease in relaxation time reflects an improvement in heart histology, such as a decrease of myocardial fibrosis, which reduces the risk of cardiac failure.”

ALMS patients [3] = experiment: Histological examination of adipocyte tissue artery (perivascular adipose tissue); details: an ALMS subject; after 24 weeks of treatment with 800 mg; FIG. 3B
Description: The study was a Phase 2, single-centre, single-arm, open-label study of sodium 2-(3-pentylphenyl)acetate administered at a total daily oral dose of 800 mg for up to 72 weeks in subjects with ALMS was undertaken. The initial duration of the study was 24 weeks, and subjects were offered to enrol into an extension phase of 36 or 48 weeks. The schedule of study procedures for the enrolment, intervention, and assessments for participants is outlined in FIG. 1. Sodium 2-(3-pentylphenyl)acetate was formulated in soft gelatine capsules containing 200 mg of Sodium 2-(3-pentylphenyl)acetate (amorphous powder) per capsule, polyethylene glycol 400, National Formulary (NF), hydrochloric acid (for pH adjustment), and water. Baseline histological examination of an adipocyte tissue artery (perivascular adipose tissue) in an ALMS subject was characterized by signs of dystrophy, homogenized blurred cytoplasm in smooth muscle cells, and nuclei with irregular shape (FIG. 3A).

SMILES: CCCCCc1cccc(CC(=O)[O-])c1.[Na+] [sodium 2-(3-pentylphenyl)acetate]
- Change from Baseline Basal SAX T1, Mean (ALMS patients [1]; EP Week 36 (Week 60), N=4): -84.75 ms
- Change from Baseline Basal SAX T1, Median (ALMS patients [1]; EP Week 36 (Week 60), N=4): -80.50 ms
- Change from Baseline Mid SAX T1, Mean (ALMS patients [1]; EP Week 36 (Week 60), N=4): -54.63 ms
- Change from Baseline Mid SAX T1, Median (ALMS patients [1]; EP Week 36 (Week 60), N=4): -51.00 ms
- Change from Baseline Basal SAX T1, Mean (ALMS patients [1]; Week 24, N=9): -10.67 ms
- Change from Baseline Basal SAX T1, Median (ALMS patients [1]; Week 24, N=9): -1.50 ms
- Change from Baseline Mid SAX T1, Mean (ALMS patients [1]; Week 24, N=9): -4.11 ms
- Change from Baseline Mid SAX T1, Median (ALMS patients [1]; Week 24, N=9): 0.00 ms
- mean decrease in Basal SAX T1 from baseline (ALMS patients [1]; after 60 weeks of treatment, p=0.0274): 84.75 ms
- mean decrease in Mid SAX T1 from baseline (ALMS patients [1]; after 60 weeks of treatment, p=0.0349): 54.63 ms
- Change from Baseline C-Peptide, Mean (ALMS patients [2]; EP Week 12 (Week 36), N=10): -350.90 pmol/L
- Change from Baseline C-Peptide, Median (ALMS patients [2]; EP Week 12 (Week 36), N=10): 6.00 pmol/L
- Change from Baseline C-Peptide, Mean (ALMS patients [2]; EP Week 24 (Week 48), N=9): -286.67 pmol/L
- Change from Baseline C-Peptide, Median (ALMS patients [2]; EP Week 24 (Week 48), N=9): -40.00 pmol/L
- Change from Baseline C-Peptide, Mean (ALMS patients [2]; EP Week 36 (Week 60), N=8): 219.88 pmol/L
- Change from Baseline C-Peptide, Median (ALMS patients [2]; EP Week 36 (Week 60), N=8): -31.00 pmol/L
- Change from Baseline C-Peptide, Mean (ALMS patients [2]; EP Week 48 (Week 72), N=3): 810.00 pmol/L
- Change from Baseline C-Peptide, Median (ALMS patients [2]; EP Week 48 (Week 72), N=3): 737.00 pmol/L
- increase in C-peptide from baseline (ALMS patients [2]; Subject 826-001-001, 204-day break in treatment): 817 pmol/L
- increase in C-peptide from baseline (ALMS patients [2]; Subject 826-001-004, 30-day break in treatment): 1.757e+06 pmol/L
- increase in C-peptide from baseline (ALMS patients [2]; Subject 826-001-005, 39-day break in treatment): 737 pmol/L
- increase in C-peptide from baseline (ALMS patients [2]; Subject 826-001-007, 32-day break in treatment): 3580 pmol/L
- Change from Baseline C-Peptide, Mean (ALMS patients [2]; Week 12, N=12): 473.50 pmol/L
- Change from Baseline C-Peptide, Median (ALMS patients [2]; Week 12, N=12): 102.50 pmol/L
- Change from Baseline C-Peptide, Mean (ALMS patients [2]; Week 24, N=12): 41.25 pmol/L
- Change from Baseline C-Peptide, Median (ALMS patients [2]; Week 24, N=12): 84.50 pmol/L
- histological examination of adipocyte tissue artery (ALMS patients [3]): the adipocyte tissue artery looked more normal
